Laboratory results taken from patent publication US8263579B2, “Anti-inflammatory compounds” (Piramal Healthcare Limited, priority 2011, dated 2012).

How the values were obtained:
IL-6 = test: High throughput screening in LPS stimulated THP-1 cells, IL-6 release by ELISA; format: cell-based
Procedure: (§1) The assay was designed on the basis of the reference, The Journal of Immunology, 1993, 151 (10), 5631-5638, the disclosure of which is incorporated by reference for the teaching of the assay.
(§2) THP-1 (ATCC, USA) cells were cultured in RPMI 1640 (Roswell Park Memorial Institute) culture medium (Gibco BRL, Pasley, UK) containing 100 U/ml penicillin, […] streptomycin (100× solution, Sigma Chemical Co. St Louis, Mo., USA) and 10% fetal bovine serum (Gibco BRL, Pasley, UK). The cells were differentiated into macrophages with phorbol myristate acetate (Sigma, USA) in 96 well culture plates. Following cell plating, various concentrations of the compound of formula I or the compound of formula II or vehicle (0.5% DMSO) were added to each well and the plate was incubated for 30 min at 37° C. Finally, per well, 20 μL of LPS (10 μg/mL stock solution) (Escherchia coli 0127:B8, Sigma Chemical Co., St. Louis, Mo.) was added for a final concentration of 1 μg/mL. Plates were incubated at 37° C. for 24 hours in an atmosphere of 5% CO2. Supernatants were harvested, and assayed for TNF-α and IL-6 by ELISA as described by the manufacturer (BD Biosciences). Percent inhibition of cytokine release compared to the control was calculated. The 50% inhibitory concentration (IC50) values were calculated by a nonlinear regression method.
(§3) Dexamethasone was used as standard.

TNF-α = test: High throughput screening in LPS stimulated THP-1 cells, TNF-α release by ELISA; format: cell-based
Procedure: as §1, §2, §3

[1] = Homo sapiens, LPS (1 μg/mL) stimulated THP-1 cells differentiated with PMA, 24 hours, ELISA
[2] = preparative HPLC fractions tested by method of Example 7
[3] = Homo sapiens, at 1 μg/ml, LPS stimulated THP-1 cells

IC50 (IL-6; [1]) [µg/mL]	IC50 (TNF-α; [1]) [µg/mL]	Structure (SMILES)	IL-6 inhibition of HPLC fractions (qualitative) (IL-6; [2])	TNF-α inhibition of HPLC fractions (qualitative) (TNF-α; [2])	inhibition at 1 µg/mL (IL-6; [3]) [%]	inhibition at 1 µg/mL (TNF-α; [3]) [%]
1.2	1.5	CCCCCCCCCCCCO/N=N/OC [Compound of formula II]	exhibited IL-6 and TNF-α inhibition	exhibited IL-6 and TNF-α inhibition	–	–
–	–	C[C@@H]1C[C@H]2[C@@H]3CCC4=CC(=O)C=C[C@]4(C)[C@@]3(F)[C@@H](O)C[C@]2(C)[C@@]1(O)C(=O)CO [Dexamethasone, reference compound]	–	–	84	73
